Test results from US9457033B2, “Steroid alkaloids and uses thereof as antimicrobial agents against electron transport-deficient microbes and as potentiators for antimicrobial agents against pathogenic bacteria” (priority 2011, dated 2016).
Values after ≈ are worked out from the molar mass of the structure shown. Like-named read-outs stand apart in the source and are kept apart here.

How the values were obtained:
[1] = system: S. aureus CF07-L (normal strain); test: MIC, microdilution in BHI 48 h (Examples 1, 3); type: cell-based, Staphylococcus aureus
[2] = system: normal CF07-L strain; test: Time-kill experiment (FIG. 1B); type: cell-based, Staphylococcus aureus; conditions: tomatidine 16 μg/ml
Method: (§1) (225 RPM), bacteria were sampled, serially diluted and plated on tryptic soy agar (TSA) for colony-forming unit (CFU) determinations (i.e., viable bacterial counts). Plates were incubated for 24 or 48 h at 35° C. for normal and SCV strains, respectively. The antibacterial activities of tomatidine and control antibiotics (erythromycin (a bacteriostatic macrolide) and ciprofloxacin (a bactericidal fluoroquinolone) against the normal CF07-L strain and the SCV CF07-S as a function of time are presented in FIGS. 1B and 1C, respectively. The antibacterial activity of tomatine against the SCV strain was also evaluated (TN in FIG. 1C).

[3] = system: S. aureus SCV NewbouldΔhemB; test: MIC, microdilution in BHI 48 h; type: cell-based, Staphylococcus aureus; conditions: Staphylococcus aureus
[4] = system: SCV strain CF07-S; test: Time-kill experiment (FIG. 1C); type: cell-based, Staphylococcus aureus; conditions: tomatidine at 0.25 μg/ml (2×MIC)
Method: as §1

[5] = system: SCV strain CF07-S in shCFTR cells; test: Intracellular infection of polarized CF airway epithelial cells (shCFTR); type: cell-based, Staphylococcus aureus; conditions: 1.25 and 12.5 μg/ml of tomatidine; 48 h post-internalization; FIG. 4B
[6] = system: S. aureus SCV CF1D-S; test: MIC, microdilution in BHI 48 h; type: cell-based, Staphylococcus aureus; conditions: Staphylococcus aureus, SCVCF1DS
[7] = system: S. aureus ATCC 29213; test: MIC, microdilution in BHI 48 h (Examples 1, 3); type: cell-based, Staphylococcus aureus
[8] = system: S. aureus SCV CF07-S; test: MIC, microdilution in BHI 48 h (Examples 1, 3); type: cell-based, Staphylococcus aureus
[9] = system: normal strain CF07-L; test: Broth growth with gentamicin or tomatidine, visually evaluated (FIG. 5A); conditions: gentamicin at 4 μg/ml or tomatidine at 0.12 μg/ml alone, 48 h
[10] = system: S. aureus CF1A-L (normal strain); test: MIC, microdilution in BHI 48 h; type: cell-based, Staphylococcus aureus; conditions: Staphylococcus aureus; CF1A-L, normal strain; read-out: MIC
[11] = system: S. aureus Newbould (normal strain); test: MIC, microdilution in BHI 48 h; type: cell-based, Staphylococcus aureus; conditions: Staphylococcus aureus; Newbould, normal strain; read-out: MIC

`C[C@H]1CC[C@]2(NC1)O[C@H]1C[C@H]3[C@@H]4CC[C@H]5C[C@@H](O)CC[C@]5(C)[C@H]4CC[C@]3(C)[C@H]1[C@@H]2C` [Tomatidine, tomatidine] was tested, and the MIC ([1]; CF07-L + HQNO at 20 μg/ml) was 0.5 µg/mL, the MIC ([1]; CF07-L, without HQNO) was >16 µg/mL and the MIC ([1]; Staphylococcus aureus, CF07-L, normal strain, read-out: MIC) was > 16 µg/mL. For the same compound, the “time-kill effect on growth” value [2] was “does not affect the growth”, the MIC [3] was 0.12 µg/mL (≈ 0.289 µM) and the “time-kill effect on growth and viability” value [4] was “induced bacteriostasis”. The “intracellular SCVs CF07-S vs DMSO-treated control cells” value [5] was “significantly less”, the MIC [6] was 0.12 µg/mL (≈ 0.289 µM) and the MIC ([7]; ATCC 29213 + HQNO at 20 μg/ml) was 0.12 to 0.25 µg/mL. The MIC ([7]; ATCC 29213, without HQNO) was >16 µg/mL, the MIC ([7]; ATCC 29213 in MHBCA) was >16 µg/mL and the MIC ([7]; Staphylococcus aureus, ATCC29213, ATCC 29213 in BHI, read-out: MIC) was > 16 µg/mL. The MIC ([7]; Staphylococcus aureus, ATCC29213, ATCC 29213, 1 μg/ml CCCP, read-out: MIC in presence of CCCP) was 0.12 µg/mL, the MIC ([8]; CF07-S + HQNO at 20 μg/ml) was 0.12 µg/mL and the MIC ([8]; CF07-S, without HQNO) was 0.12 µg/mL (≈ 0.289 µM). The MIC ([8]; Staphylococcus aureus, SCVCF07S) was 0.12 µg/mL (≈ 0.289 µM), the “growth, visually evaluated” value [9] was “does not” and the MIC [10] was > 16 µg/mL. The MIC [11] was > 16 µg/mL.
